From paper PMC6844379, “Design, synthesis, in vitro inhibition and toxicological evaluation of human carbonic anhydrases I, II and IX inhibitors in 5-nitroimidazole series” (Journal of Enzyme Inhibition and Medicinal Chemistry, 2019) come the findings set out here.

This assay addresses T1, hCA I (Homo sapiens, UniProt P00915).
T1 construct: gene CA1; recombinant, obtained in house as reported earlier; cytosolic isoform
The experiment in a line: stopped-flow CO2 hydrase assay. It counts as biochemical. The note with it: […] Hepes pH […] Na2SO4, CO2 […], […] min pre-incubation at room temperature.

T1 sequence (P00915 2-261): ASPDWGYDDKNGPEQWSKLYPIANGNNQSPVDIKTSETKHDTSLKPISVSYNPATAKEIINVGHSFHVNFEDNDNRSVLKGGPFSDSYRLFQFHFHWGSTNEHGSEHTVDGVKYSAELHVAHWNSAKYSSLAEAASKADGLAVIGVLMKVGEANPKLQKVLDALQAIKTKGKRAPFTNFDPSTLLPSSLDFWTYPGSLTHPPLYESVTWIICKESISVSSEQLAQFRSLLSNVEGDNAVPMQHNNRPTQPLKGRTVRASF

Usually Ki stands for the dissociation constant of the complex between target and ligand, obtained from inhibition or displacement. High values mean lower affinity, low ones higher affinity. Regarding `Cc1ncc([N+](=O)[O-])n1CCS(N)(=O)=O` [compound 10, 2-(2-Methyl-5-nitro-1H-imidazol-1-yl)ethane-1-sulphonamide], the Ki is 6430 nM.
